This is an account of results in ChEMBL document CHEMBL5500362, “Benzothiazole derivatives as histone deacetylase inhibitors for the treatment of autosomal dominant polycystic kidney disease” (Eur J Med Chem, 2024).

SMILES strings stand for the structures. Active and inactive are the calls of the source. The rule behind the calls is not given here.

The test system of one data set is HeLa. The note with it: Homo sapiens, dose 100.0 nM, time 15.0 min.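 Also: HDAC inhibition in HeLa cells, read on a microplate reader using an acetylated peptide AMC substrate, expressed relative to control.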
The subject of data set [1] is Mus musculus. The data set can be described thus: Inhibition of renal cystogenesis in PKD1 knockout ADPKD C57BL/6 mouse assessed as reduction kidney to body weight ratio index at 1 mg/kg, sc administered once daily for 1 week (19.5 +/-0.5%). In kind it is functional. Also noted: scale not given: the % may be the effect or the level left. The note with it: time 1 weeks.

Data set [2] deals with MDCK. The data set can be described thus: Cytotoxicity against MDCK cells at 0.3 to 1 uM by CCK-8 assay. The format is toxicity, cell-based, Canis lupus familiaris. Conditions: dog, dose 0.3-1 µM. In general terms: Tetrazolium dyes change colour on reduction, which living cells bring about.
Data set [3] relates to MDCK. The data set can be described thus: Inhibition of cystogenesis in PKD1 knockout ADPKD MDCK cells assessed as inhibition of cyst formation at 0.3 to 1 uM. In kind it is functional, cell-based. The note with it: Canis lupus familiaris, dose 0.3-1 µM, time 4-10 day, TDE = time-dependent effect.
In data set [4] the test system is Mus musculus. The data set can be described thus: Inhibition of renal cystogenesis in PKD1 knockout ADPKD C57BL/6 mouse assessed as decrease in kidney size at 1 mg/kg, sc administered once daily for 1 week by H and E staining based analysis. The format is functional, organism-based. Conditions: time 1.0 weeks.
Data set [5] in a line: AUC (0 to t) in C57BL/6 mouse at 1 mg/kg, sc by LC-MS/MS analysis. The format is ADME, organism-based. The note with it: in vivo.
A short description of data set [6]: Terminal elimination half life in C57BL/6 mouse at 1 mg/kg, sc by LC-MS/MS analysis. In kind it is ADME, organism-based. The note with it: in vivo, read-out: LambdaZ (converted).
Data set [7] in a line: Tmax in C57BL/6 mouse at 1 mg/kg, sc by LC-MS/MS analysis. The format is ADME, organism-based. Conditions: in vivo.
Data set [8] deals with Mus musculus. The data set can be described thus: Inhibition of renal cystogenesis in PKD1 knockout ADPKD C57BL/6 mouse assessed as reduction in kidney size at 1 mg/kg, sc administered once daily for 1 week. The format is functional, organism-based. The note with it: time 1.0 weeks.
Data set [9] in a line: AUC (0 to infinity) in C57BL/6 mouse at 1 mg/kg, sc by LC-MS/MS analysis. The note with it: in vivo. In kind it is ADME, organism-based.
In data set [10] the test system is MDCK. The data set is described as follows: Upregulation of acetylation of alpha tubulin level in MDCK cells incubated for 24 hrs by Western blot analysis. In kind it is functional, cell-based. The note with it: Canis lupus familiaris, dose 0.3-1 µM.
Data set [11] deals with MDCK. The data set is described as follows: Antiproliferative activity against MDCK cells at 0.3 to 1 uM by Hoechst 33342 and EdU staining based analysis. The format is functional, cell-based. The note with it: Canis lupus familiaris, dose 0.3-1 µM.
In a further data set the test system is Kidney. The data set can be described thus: Ex vivo inhibition of renal cystogenesis in wild type C57BL/6 mouse kidney assessed as suppression of 8-Br-cAMP-induced cyst development at 1 uM treated for 6 days by inverted microscopic analysis. In kind it is functional, tissue-based. Conditions: time 6.0 day.
Data set [12] has as its system MDCK. The data set is described as follows: Inhibition of colony formation in MDCK cells measured after 8 days by crystal violet staining based analysis. The format is functional, cell-based. The note with it: Canis lupus familiaris, dose 0.3-1 µM, time 8.0 day.
The subject of data set [13] is Mus musculus. The data set is described as follows: Inhibition of renal cystogenesis in PKD1 knockout ADPKD C57BL/6 mouse assessed as reduction in renal cyst formation at 1 mg/kg, sc administered once daily for 1 week by H and E staining based analysis. In kind it is functional, organism-based. The note with it: time 1.0 weeks.
Data set [14] concerns Mus musculus. The data set can be described thus: Inhibition of renal cystogenesis in PKD1 knockout ADPKD C57BL/6 mouse assessed as increase in renal parenchyma at 1 mg/kg, sc administered once daily for 1 week by H and E staining based analysis. The format is functional, organism-based. The note with it: time 1.0 weeks.
Data set [15] is described as follows: Cmax in C57BL/6 mouse at 1 mg/kg, sc by LC-MS/MS analysis. The format is ADME, organism-based. Conditions: in vivo.
A short description of data set [16]: Half life in C57BL/6 mouse at 1 mg/kg, sc by LC-MS/MS analysis. The format is ADME, organism-based. Conditions: in vivo.

Description for HeLa: Inhibition of HDAC in human HeLa cells using Ac-Leu-Gly-Lys(Ac)-AMC as substrate at 100 nM incubated for 15 mins by Spectra max M5 microplate reader analysis relative to control

With `COc1ccc2nc(-c3ccc(OC)c(OCCCCCCC(=O)NO)c3)sc2c1`, the inhibition in the data set on HeLa was determined as 80.3%. In the data set on HeLa, `O=C(COc1ccc(-c2nc3ccccc3s2)cc1)NO` gave an inhibition of 34.8%. `O=C(CCCOc1cccc(-c2nc3ccccc3s2)c1)NO`: the inhibition in the data set on HeLa amounted to 41.2%. For the molecule `COc1ccc2nc(-c3ccc(OCCCCCCC(=O)NO)cc3)sc2c1`, the inhibition in the data set with HeLa was found to be 51.7%. With `Cc1ccccc1C(=O)Nc1ccc(C(=O)N2CCCC(O)c3cc(Cl)ccc32)c(C)c1` (configuration not stated) [TOLVAPTAN], the Activity in the data set with Mus musculus [1] was determined as 15.8%. For the molecule `O=C(CCCCCOc1ccc(-c2nc3ccccc3s2)cc1)NO`, the inhibition with HeLa turned out to be 26.8%. In the data set with HeLa, `COc1ccc(-c2nc3cc(Cl)ccc3s2)cc1OCCCCCCC(=O)NO` came in with an inhibition of 37.2%. As to `O=C(COc1cccc(-c2nc3ccccc3s2)c1)NO`, in the data set on HeLa, the inhibition was found to be 66.5%. On to `O=C(CCCCCCOc1ccc(-c2nc3ccccc3s2)cc1Cl)NO`, for which the inhibition in the data set with HeLa was found to be 18.3%.

`O=C(CCCCCCOc1ccc(-c2nc3ccc(Cl)cc3s2)cc1)NO`: in the data set on HeLa, the inhibition was 21.7%. Turning to `O=C(CCCCCCOc1ccc(-c2nc3ccccc3s2)c(F)c1)NO`, in the data set on HeLa, the inhibition is 83%. As to `O=C(CCCCCCCOc1cccc(-c2nc3ccccc3s2)c1)NO`, the inhibition with HeLa amounted to 65.3%. As to `O=C(CCCCCCOc1ccc(-c2nc3ccccc3s2)c(Cl)c1)NO`, in the data set on HeLa, the inhibition was 33.2%. With `COc1ccc(-c2nc3ccccc3s2)cc1OCCCCCCC(=O)NO`, the values for the Activity entry in the data set on MDCK [2], in the data set with MDCK [10] and in the data set with Mus musculus [1] were “Non-Toxic”, “Dose-Dependent Effect” and 14.2%, respectively. In addition, the inhibition entry was “Tde” in the data set with MDCK [3], 88% in the data set on HeLa and “Dose-Dependent Effect” in the data set on MDCK [12]. Moreover, the outcome in the data set on Mus musculus [4], with Mus musculus [8], in the data set on MDCK [11], with Kidney, with Mus musculus [13] and in the data set with Mus musculus [14] was Active. The molecule further registered an AUC(0-t) in [5] of 597 ng·h/mL. Also, in [6], the k el was 3.61e-05 s⁻¹. For the same molecule, the time to peak (Tmax) in data set [7] was found to be 15 min. Moreover, the AUC(0-inf) in data set [9] was determined as 614 ng·h/mL. The molecule further had a Cmax in data set [15] of 572 ng/mL. Also, in [16], the half-life is 345 min. In the case of `O=C(CCCOc1ccc(-c2nc3ccccc3s2)cc1)NO`, the inhibition in the data set on HeLa came out at 3.33%. In the case of `O=C(CCCCOc1ccc(-c2nc3ccccc3s2)cc1)NO`, in the data set with HeLa, the inhibition came to 56%.

In the data set with HeLa, `O=C(CCCCCCOc1cccc(-c2nc3ccccc3s2)c1)NO` yielded an inhibition of 76.8%. In turn, `O=C(CCCCCCOc1ccc(-c2nc3ccccc3s2)cc1)NO` gave an inhibition in the data set on HeLa of 84.2%. In the data set on HeLa, `COc1cc(-c2nc3ccccc3s2)ccc1OCCCCCCC(=O)NO` showed an inhibition of 74.2%. On to `COc1ccc(-c2nc3ccccc3s2)cc1OCCCCCCCC(=O)NO`, for which the inhibition in the data set on HeLa was 28.2%. Same read-out and setting: with `O=C(CCCCOc1cccc(-c2nc3ccccc3s2)c1)NO` the figure was 45.7%; with `COc1cc(-c2nc3ccccc3s2)cc(OC)c1OCCCCCCC(=O)NO`, 81.7%; with `O=C(CCCCCCOc1cccc(-c2nc3ccccc3s2)c1Cl)NO`, 62%. In turn, `O=C(CCCCCCOc1ccc(-c2nc3ccc(F)cc3s2)cc1)NO` had an inhibition in the data set on HeLa of 61.2%.

For the molecule `O=C(CCCCCCOc1ccc(-c2nc3cc(Cl)ccc3s2)cc1)NO`, the inhibition in the data set with HeLa came out at 42.7%.

`O=C(CCCCCCOc1ccc(-c2nc3ccccc3s2)cc1F)NO` registered an inhibition in the data set with HeLa of 46.2%. Take `COc1ccc(-c2nc3ccc(C)cc3s2)cc1OCCCCCCC(=O)NO`: in the data set with HeLa, the inhibition was found to be 67.8%. Same read-out and setting: then `CCOc1cc(-c2nc3ccccc3s2)ccc1OCCCCCCC(=O)NO`, with 75%; and `O=C(CCCCCOc1cccc(-c2nc3ccccc3s2)c1)NO`, with 76.7%. The same measure, in the same setting: with `O=C(CCCCCCOc1cccc(-c2nc3ccccc3s2)c1F)NO` the figure was 68.7%; with `COc1ccc(-c2nc3ccc(F)cc3s2)cc1OCCCCCCC(=O)NO`, 77.3%.

In the data set on HeLa, `O=C(CCCCCCCOc1ccc(-c2nc3ccccc3s2)cc1)NO` gave an inhibition of 9.17%.

`Cc1cc(-c2nc3ccccc3s2)ccc1OCCCCCCC(=O)NO` had an inhibition in the data set with HeLa of 39.3%. In the data set on HeLa, `COc1ccc(-c2nc3ccc(Cl)cc3s2)cc1OCCCCCCC(=O)NO` came in with an inhibition of 44.5%. `Cc1ccc2nc(-c3ccc(OCCCCCCC(=O)NO)cc3)sc2c1` came in with an inhibition in the data set with HeLa of 52.3%.

What is called inhibition is the change of the read-out against control, counted positive when it falls. For orientation: AUC(0-t) means the area under the concentration-time curve up to a stated or last time point. A word on the Tmax: it is the time at which the peak concentration occurs. In general, AUC(0-inf) refers to total exposure, with the tail of the curve extrapolated. As a reminder, the Cmax is the peak of the concentration-time curve. What is called half-life is how long it takes for the measured level to halve.
